Target: HIV-1 fusion (gp160 induced cell-cell fusion; HeLa P4 cell line expressing CCR5 and CD4 / CHO-Tat10 cell line) (Homo sapiens, UniProt P51681)
Assay: gp160 induced cell-cell fusion assay
Type: cell-based
Settings: HeLa P4 / CHO-Tat10 cells, read-out: IC50
From the text: Biol., 60, 147-52 (1996); and/or by using the intracellular calcium mobilisation assays as described by the same authors, and/or inhibiting cell fusion following procedures disclosed in Bradley et al., J Biomol Screen 9, 516-24 (2004).
The gp160 induced cell-cell fusion assay uses a HeLa P4 cell line and a CHO-Tat10 cell line.
The HeLa P4 cell line expresses CCR5 and CD4 and has been transfected with HIV-1 LTR-β-Galactosidase. The media for this cell line is Dulbecco modified eagle's medium (D-MEM) (without L-glutamine) containing 10% foetal calf serum (FCS), 2 mM L-glutamine, penicillin/streptomycin (Pen/Strep; 100 U/mL penicillin+[…] streptomycin), and 1 μg/ml puromycin.
The CHO cell line is a Tat (transcriptional trans activator)-expressing clone from a CHO JRR17.1 cell line that has been transfected with pTat puro plasmid. The media for this cell line is rich medium for mammalian cell culture originally developed at Roswell Park Memorial Institute RPMI1640 (without L-glutamine) containing 10% FCS, 2 mM L-glutamine, 0.5 mg/ml Hygromycin B and 12 µg/ml puromycin. The CHO JRR17.1 line expresses gp160 (JRFL) and is a clone that has been selected for its ability to fuse with a CCR5/CD4 expressing cell line.
Upon cell fusion, Tat present in the CHO cell is able to transactivate the HIV-1 long terminal repeat (LTR) present in the HeLa cell leading to the expression of the β-Galactosidase enzyme. This expression is then measured using a Fluor Ace™ β-Galactosidase reporter assay kit (Bio-Rad cat no. 170-3150). This kit is a quantitative fluorescent assay that determines the level of expression of β-galactosidase using 4-methylumbelliferyl-galactopyranoside (MUG) as substrate. β-Galactosidase hydrolyses the fluorogenic substrate resulting in release of the fluorescent molecule 4-methylumbelliferone (4MU). Fluorescence of 4-methylumbelliferone is then measured on a fluorometer using an excitation wavelength of 360 nm and emission wavelength of 460 nm.
Compounds that inhibit fusion will give rise to a reduced signal and, following solubilisation in an appropriate solvent and dilution in culture medium, a dose-response curve for each compound can be used to calculate IC50 values.

HIV-1 fusion (gp160 induced cell-cell fusion; HeLa P4 cell line expressing CCR5 and CD4 / CHO-Tat10 cell line), sequence (P51681 whole entry, the tested form may be a part): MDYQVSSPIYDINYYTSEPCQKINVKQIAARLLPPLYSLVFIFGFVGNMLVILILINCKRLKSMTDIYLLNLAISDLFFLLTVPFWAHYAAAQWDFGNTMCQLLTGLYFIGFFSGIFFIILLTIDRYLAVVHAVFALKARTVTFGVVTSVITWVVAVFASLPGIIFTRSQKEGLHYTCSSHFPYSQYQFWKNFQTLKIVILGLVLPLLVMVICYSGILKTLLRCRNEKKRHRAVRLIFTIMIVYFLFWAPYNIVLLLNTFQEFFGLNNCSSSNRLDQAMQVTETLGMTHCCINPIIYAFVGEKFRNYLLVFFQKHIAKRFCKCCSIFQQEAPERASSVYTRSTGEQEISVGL

SMILES | IC50 [nM]
Cc1nc2c(n1C1CCN(C(C)C[C@H](NC(=O)CC(C)C)c3ccccc3)CC1)CN(C(=O)C(C)C)CC2 (single isomer, unassigned) [Example 28] | 79.2
CCC(=O)N[C@@H](CC(C)N1CCC(n2c(C)nc3c2CN(C(=O)C(C)C)CC3)CC1)c1cccc(F)c1 (stereo partly drawn) [Example 65] | 0.6
CC(=O)N1CCc2nc(C)n(C3CCN(C(C)C[C@H](NC(=O)C4CCC4)c4cccc(F)c4)CC3)c2C1 (stereo partly drawn) [Example 57] | 0.2
Cc1nccn1C1CCN(C(C)C[C@H](NC(=O)C2CCC(F)(F)CC2)c2ccccc2)CC1 (stereo partly drawn) [Example 112, 4,4-Difluoro-N-{(1S)-3-[4-(2-methyl-1H-imidazol-1-yl)piperidin-1-yl]-1-phenylbutyl}cyclohexanecarboxamide] | 1
Cc1cc(C(C)C)n(C2CCN(C(C)C[C@H](NC(=O)C3CCC(F)(F)CC3)c3ccccc3)CC2)n1 (single isomer, unassigned) [Example 117] | 1170
CCOC(=O)N1CCc2c(nc(C)n2C2CCN(C(C)C[C@H](NC(=O)C3CC3)c3cccc(F)c3)CC2)C1 (single isomer, unassigned) [Example 97] | 10
CC(=O)N1CCc2nc(C)n(C3CCN(C(C)C[C@H](NC(=O)OC(C)C)c4ccccc4)CC3)c2C1 (stereo partly drawn) [Example 63] | 1.8
CCc1noc(C2CCN(C(C)CC(NC(=O)C3CCC(F)(F)CC3)c3ccccc3)CC2)n1 (mixture of isomers) [Example 129] | 8.6
COC(=O)N[C@@H](CC(C)N1CCC(n2c(C)nc3c2CN(C(C)=O)CC3)CC1)c1cccc(F)c1 (stereo partly drawn) [Example 59] | 13
CC(=O)N1CCc2nc(C)n(C3CCN(C(C)C[C@H](NC(=O)C4CCC4(F)F)c4cccc(F)c4)CC3)c2C1 (stereo partly drawn) [Example 49] | 0.4
CC(=O)N1CCc2c(nc(C)n2C2CCN(C(C)C[C@H](NC(=O)C(C)C)c3cccc(F)c3)CC2)C1 (single isomer, unassigned) [Example 93] | 12.9
Cc1nc2c(n1C1CCN(C(C)C[C@H](NC(=O)C3CCC3)c3ccccc3)CC1)CN(C(=O)C(C)C)CC2 (single isomer, unassigned) [Example 24] | 0.2
COC(=O)N1CCc2nc(C)n(C3CCN(C(C)CC(NC(=O)C4CC4)c4ccccc4)CC3)c2C1 (mixture of isomers) [Example 12] | 0.6
Cc1nc2c(n1C1CCN(C(C)C[C@H](NC(=O)C3(C)CC3)c3ccccc3)CC1)CN(C(=O)C(C)C)CC2 (stereo partly drawn) [Example 22] | 0.5
Cc1noc(C2CCN(C(C)C[C@H](NC(=O)C3CCC(F)(F)CC3)c3ccccc3)CC2)n1 (single isomer, unassigned) [Example 109] | 4.6
Cc1nc2c(n1C1CCN(C(C)C[C@H](NC(=O)C3CCC3)c3ccccc3)CC1)CN(C(=O)C(C)C)CC2 (single isomer, unassigned) [Example 30] | 11
CC(C[C@H](NC(=O)C1CCC(F)(F)CC1)c1ccccc1)N1CCC(c2nnnn2C(C)C)CC1 (single isomer, unassigned) [Example 126] | 21.8
CC(=O)N1CCc2nc(C)n(C3CCN(C(C)C[C@H](NC(=O)C4(C)CC4)c4ccccc4)CC3)c2C1 (stereo partly drawn) [Example 55] | 0.3
CC(=O)N1CCc2nc(C)n(C3CCN(C(C)C[C@H](NC(=O)C4CCC(F)(F)CC4)c4cccc(F)c4)CC3)c2C1 (single isomer, unassigned) [Example 51] | 0.3
CC(=O)N1CCc2c(nc(C)n2C2CCN(C(C)C[C@H](NC(=O)C3CC3)c3cccc(F)c3)CC2)C1 (single isomer, unassigned) [Example 101] | 18.8

SMILES | IC50 [nM]
COC(=O)N1CCc2c(nc(C)n2C2CCN(C(C)C[C@H](NC(=O)C3CC(F)(F)C3)c3cccc(F)c3)CC2)C1 (stereo partly drawn) [Example 80, Methyl 1-{1-[(3S)-3-{[(3,3-difluorocyclobutyl)carbonyl]amino}-3-(3-fluorophenyl)-1-methylpropyl]piperidin-4-yl}-2-methyl-1,4,6,7-tetrahydro-5H-imidazo[4,5-c]pyridine-5-carboxylate] | 0.2
CCCC(=O)N[C@@H](CC(C)N1CCC(n2c(C)nc3c2CN(C(=O)OC)CC3)CC1)c1cccc(F)c1 (stereo partly drawn) [Example 69, Methyl 3-{1-[(3S)-3-(butyrylamino)-3-(3-fluorophenyl)-1-methylpropyl]piperidin-4-yl}-2-methyl-3,4,6,7-tetrahydro-5H-imidazo[4,5-c]pyridine-5-carboxylate] | 0.2
Cc1noc(C2CCN(C(C)C[C@H](NC(=O)C3CCC(F)(F)CC3)c3ccccc3)CC2)n1 (single isomer, unassigned) [Example 110] | 353
COC(=O)N[C@@H](CC(C)N1CCC(n2c(C)nc3c2CN(C(=O)OC)CC3)CC1)c1ccccc1 (single isomer, unassigned) [Example 13A] | 37.1
CC(C[C@H](NC(=O)C1CCC(F)(F)CC1)c1ccccc1)N1CCC(c2nnnn2C(C)C)CC1 (single isomer, unassigned) [Example 125] | 2.2
CC(C)c1nccn1C1CCN(C(C)C[C@H](NC(=O)C2CCC(F)(F)CC2)c2ccccc2)CC1 (stereo partly drawn) [Example 111, 4,4-Difluoro-N-{(1S)-3-[4-(2-isopropyl-1H-imidazol-1-yl)piperidin-1-yl]-1-phenylbutyl}cyclohexanecarboxamide] | 0.2
COC(=O)N1CCc2c(nc(C)n2C2CCN(C(C)C[C@H](NC(C)=O)c3ccccc3)CC2)C1 (single isomer, unassigned) [Example 72] | 2.4
Cc1nc2c(n1C1CCN(C(C)C[C@H](NC(=O)C3CC(F)(F)C3)c3ccccc3)CC1)CN(C(=O)C(C)C)CC2 (stereo partly drawn) [Example 25, 3,3-Difluoro-N-{(1S)-3-[4-(5-isobutyryl-2-methyl-4,5,6,7-tetrahydro-3H-imidazo[4,5-c]pyridin-3-yl)piperidin-1-yl]-1-phenylbutyl}cyclobutanecarboxamide] | 0.4
COC(=O)N1CCc2c(nc(C)n2C2CCN(C(C)CC(NC(=O)C3CC3)c3cccc(F)c3)CC2)C1 (mixture of isomers) [Example 78] | 1.8
COC(=O)N1CCc2c(nc(C)n2C2CCN(C(C)C[C@H](NC(C)=O)c3ccccc3)CC2)C1 (single isomer, unassigned) [Example 73] | 9.1
CC(=O)N1CCc2nc(C)n(C3CCN(C(C)C[C@H](NC(=O)C4CCOCC4)c4cccc(F)c4)CC3)c2C1 (stereo partly drawn) [Example 52] | 1
COC(=O)N1CCc2c(nc(C)n2C2CCN(C(C)CC(NC(=O)C(C)C)c3cccc(F)c3)CC2)C1 (mixture of isomers) [Example 77] | 0.6
CC(C)c1noc(C2CCN(C(C)C[C@H](NC(=O)C3CCC3)c3ccccc3)CC2)n1 (stereo partly drawn) [Example 105, N-{(1S)-3-[4-(3-isoPropyl-1,2,4-oxadiazol-5-yl)piperidin-1-yl]-1-phenylbutyl}cyclobutanecarboxamide] | 94.6
CC(=O)N1CCc2nc(C)n(C3CCN(C(C)C[C@H](NC(=O)C4CC4)c4cccc(F)c4)CC3)c2C1 (stereo partly drawn) [Example 60] | 0.6
CC(=O)N1CCc2c(nc(C)n2C2CCN(C(C)C[C@H](NC(=O)C3CC3)c3cccc(F)c3)CC2)C1 (stereo partly drawn) [Example 103] | 0.2
CC(=O)N1CCc2nc(C)n(C3CCN(C(C)C[C@H](NC(=O)C4(C)CC4)c4cccc(F)c4)CC3)c2C1 (stereo partly drawn) [Example 48] | 0.8
COC(=O)N1CCc2nc(C)n(C3CCN(C(C)CC(NC(=O)C4CCS(=O)(=O)CC4)c4ccccc4)CC3)c2C1 (mixture of isomers) [Example 8] | 6
COC(=O)N1CCc2nc(C)n(C3CCN(C(C)C[C@H](NC(=O)OC(C)(C)C)c4ccccc4)CC3)c2C1 (single isomer, unassigned) [Example 2] | 14
CC(C)c1nnnn1C1CCN(C(C)C[C@H](NC(=O)C2CCC(F)(F)CC2)c2ccccc2)CC1 (single isomer, unassigned) [Example 121] | 0.5
Cc1nc2c(n1C1CCN(C(C)C[C@H](NC(=O)C3(C)CC3)c3ccccc3)CC1)CN(C(=O)C(C)C)CC2 (stereo partly drawn) [Example 27] | 115

Same assay, conditions: IC50 (nM), HeLa P4 / CHO-Tat10 cells

SMILES | IC50 [nM]
CCC(=O)N[C@@H](CC(C)N1CCC(n2c(C)nc3c2CN(C(C)=O)CC3)CC1)c1cccc(F)c1 (stereo partly drawn) [Example 62, N-[(1S)-3-[4-(5-acetyl-2-methyl-4,5,6,7-tetrahydro-3H-imidazo[4,5-c]pyridin-3-yl)piperidin-1-yl]-1-(3-fluorophenyl)butyl]propanamide] | 1
CC(=O)N1CCc2nc(C)n(C3CCN(C(C)C[C@H](NC(=O)C(C)C)c4cccc(F)c4)CC3)c2C1 (stereo partly drawn) [Example 58, N-[(1S)-3-[4-(5-acetyl-2-methyl-4,5,6,7-tetrahydro-3H-imidazo[4,5-c]pyridin-3-yl)piperidin-1-yl]-1-(3-fluorophenyl)butyl]-2-methylpropanamide] | 0.5
